This is an account of results in patent US10154992B2, “Compounds and methods for treating HIV infection” (THE REGENTS OF THE UNIVERSITY OF CALIFORNIA, priority 2016, dated 2018).

The first series has as its system Tat-hybrid reporter cell lines (HeLa). The experiment in a line: MTT cell viability run in parallel with the Tat-hybrid assay. The following applies: Table 6; at 50,000 nM. It counts as cell-based. How it is done: (§1) Cells were counted and plated into white 384-well or 96-well cell-culture treated assay plates and compounds were added. After 48 hours, the cells were prepared for luminescence assays that were performed on a plate reader (Tecan Evolution or MD Analyst). The cytotoxicity of each compound was determined in parallel via MTT-based cell viability assays.
(§2) Tat hybrid reporter assay. […] Previously characterized thienopyridines and diaminoacridine were used as controls. Cells were counted and plated into white 384-well cell-culture treated assay plates and compounds were added. After 48 hours, the cells were prepared for lumincescence assays that were performed on a plate reader (Tecan Evolution or MD Analyst). The cytotoxicity of each compound was determined in parallel via MTT-based cell viability assays. […]
Turning to `COc1ccc(-c2cc(-c3ccc(Cl)cc3)c3c(N)c(C(N)=O)sc3n2)cc1`, the “Tat hybrid cell viability at 50,000 nM” value was “X (X = >60%)”. As for `NC(=O)c1sc2nc(C(F)F)cc(-c3ccccc3)c2c1N`, the “Tat hybrid cell viability at 50,000 nM” value was “X (X = >60%)”. Consider `C=CCN(CC=C)C(=O)c1sc2nc(C)c(Cl)c(C)c2c1N`, for which the “Tat hybrid cell viability at 50,000 nM” value was “X (X = >60%)”.

For the compound `NC(=O)c1sc2nc3c(cc2c1N)CCCCC3`, the “Tat hybrid cell viability at 50,000 nM” value is “X (X = >60%)”. The same measure, in the same setting: the entry for `COc1ccc(-c2c3c(nc4sc(C(N)=O)c(N)c24)CCCC3)cc1` is “X (X = >60%)”; for `NC(=O)c1sc2nc(C(F)F)cc(-c3ccco3)c2c1N` it is “Y (Y = 30-60%)”; for `COc1ccc(-c2cc(-c3ccccc3)nc3sc(C(N)=O)c(N)c23)cc1` [drawing 256] it is “X (X = >60%)”.

As to `NC(=O)c1sc2nc(-c3ccc(F)cc3)cc(-c3ccccc3)c2c1N`, the “Tat hybrid cell viability at 50,000 nM” value is recorded as “X (X = >60%)”. On the same count and under the same terms, the entry for `COCc1cc(C)nc2sc(C(=O)OC)c(N)c12` is “X (X = >60%)”. Same read-out and setting: under `NC(=O)c1sc2nc(-c3cccs3)cc(C(F)(F)F)c2c1N` stands “Y (Y = 30-60%)”; under `N#Cc1c(N)nc2sc(C(=O)Nc3ccc(Br)cc3)c(N)c2c1-c1cccs1`, “X (X = >60%)”. Regarding `COCc1cc(C)nc2sc(C(=O)N3CCOCC3)c(N)c12`, the “Tat hybrid cell viability at 50,000 nM” value is given as “Y (Y = 30-60%)”. For the compound `CCc1nnc(NC(=O)c2sc3nc(C)cc(COC)c3c2N)s1`, the “Tat hybrid cell viability at 50,000 nM” value is listed as “X (X = >60%)”. Regarding `COCc1cc(C)nc2sc(C(=O)Nc3cc(C)ccc3F)c(N)c12`, the “Tat hybrid cell viability at 50,000 nM” value is reported as “X (X = >60%)”. For the compound `Cc1cc(C)c2cc3c(N)c(C(N)=O)sc3nc2c1`, the “Tat hybrid cell viability at 50,000 nM” value was “Z (Z = <30%)”. As for `COc1cc2cc3c(N)c(C(N)=O)sc3nc2cc1OC`, the “Tat hybrid cell viability at 50,000 nM” value is listed as “X (X = >60%)”. `Cc1ccc2c(N)c(C(N)=O)sc2n1` [drawing 227]: the “Tat hybrid cell viability at 50,000 nM” value was “X (X = >60%)”.

As to `COc1ccc(-c2c(C(=O)Nc3ccccc3)c(C)nc3sc(C(N)=O)c(N)c23)cc1`, the “Tat hybrid cell viability at 50,000 nM” value was “X (X = >60%)”. For the compound `N#Cc1c(N)nc2sc(C(=O)Nc3ccccc3)c(N)c2c1-c1cccs1`, the “Tat hybrid cell viability at 50,000 nM” value is reported as “X (X = >60%)”. `NNC(=O)c1sc2ncccc2c1N`: the “Tat hybrid cell viability at 50,000 nM” value was “X (X = >60%)”. Same read-out and setting: under `CCc1ccc2nc3sc(C(N)=O)c(N)c3cc2c1` stands “X (X = >60%)”; under `Cc1ccc2cc3c(N)c(C(N)=O)sc3nc2c1C`, “X (X = >60%)”; under `CN(C)c1ccnc2sc(C(=O)NCc3ccccc3)c(N)c12`, “Y (Y = 30-60%)”.

Regarding `CCOc1ccc2nc3sc(C(N)=O)c(N)c3cc2c1`, the “Tat hybrid cell viability at 50,000 nM” value is given as “X (X = >60%)”. For `NC(=O)c1sc2nc3c(cc2c1N)C(=O)CCC3`, the “Tat hybrid cell viability at 50,000 nM” value is given as “X (X = >60%)”. On the same count and under the same terms, under `NC(=O)c1sc2nc(C34CC5CC(CC(C5)C3)C4)ccc2c1N` stands “X (X = >60%)”; under `COc1ccc(-c2cc(-c3ccccc3)nc3sc(C(N)=O)c(N)c23)cc1` [drawing 268], “Y (Y = 30-60%)”; under `N#Cc1cc2c(N)c(C(N)=O)sc2nc1N`, “Z (Z = <30%)”. With `NC(=O)c1sc2nc(-c3ccc4c(c3)OCCO4)cc(C(F)(F)F)c2c1N`, the “Tat hybrid cell viability at 50,000 nM” value was “X (X = >60%)”. On the same count and under the same terms, the entry for `NC(=O)c1sc2nc(-c3ccc(Cl)cc3)cc(-c3ccc(Cl)cc3)c2c1N` is “X (X = >60%)”; for `CCN(CC)C(=O)c1sc2nc(C)cc(C)c2c1N` it is “Y (Y = 30-60%)”. With `NC(=O)c1sc2nc3c(cc2c1N)CCCC3`, the “Tat hybrid cell viability at 50,000 nM” value was “X (X = >60%)”. On the same count and under the same terms, the entry for `NC(=O)c1sc2nc(C3CC3)cc(-c3ccc(Cl)cc3)c2c1N` is “Y (Y = 30-60%)”. For the compound `COc1ccc2cc3c(N)c(C(N)=O)sc3nc2c1`, the “Tat hybrid cell viability at 50,000 nM” value is “Y (Y = 30-60%)”. Still for that read-out and setting: the entry for `NC(=O)c1sc2nc(-c3ccccc3)cc(-c3ccccc3)c2c1N` is “Tat hybrid % inhibition at 5,000 nM: Z Tat hybrid cell viability at 50,000 nM: Z U1% inhibition at 10,000 nm: Z (Z = <30%)”.

With `CCc1nc2sc(C(N)=O)c(N)c2cc1C`, the “Tat hybrid cell viability at 50,000 nM” value is “X (X = >60%)”. Turning to `N#Cc1c(N)nc2sc(C(N)=O)c(N)c2c1-c1ccc(Br)cc1`, the “Tat hybrid cell viability at 50,000 nM” value is listed as “X (X = >60%)”.

Consider `COc1ccc(C(=O)c2sc3nc(C)c(C)c(C)c3c2N)cc1OC`, for which the “Tat hybrid cell viability at 50,000 nM” value is “X (X = >60%)”. Still for that read-out and setting: under `COCc1cc(C)nc2sc(C(=O)Nc3ccc(C(C)=O)cc3)c(N)c12` stands “X (X = >60%)”. For the compound `Cc1ccc2nc3sc(C(N)=O)c(N)c3cc2c1`, the “Tat hybrid cell viability at 50,000 nM” value is given as “X (X = >60%)”. The same measure, in the same setting: the entry for `COc1ccc(-c2c(C#N)c(N)nc3sc(C(N)=O)c(N)c23)cc1OC` is “Y (Y = 30-60%)”; for `NC(=O)c1sc2nc(C3CC3)cc(-c3ccccc3)c2c1N` it is “X (X = >60%)”; for `Cc1cc(C)c2nc3sc(C(N)=O)c(N)c3cc2c1` it is “X (X = >60%)”. For the compound `COc1ccc(NC(=O)c2sc3nc(N)c(C#N)c(-c4cccs4)c3c2N)cc1`, the “Tat hybrid cell viability at 50,000 nM” value is listed as “X (X = >60%)”. Still for that read-out and setting: the entry for `Cc1cc(C)c2c(N)c(C(=O)NCC(=O)O)sc2n1` is “X (X = >60%)”; for `Cc1nc2sc(C(=O)c3ccccc3)c(N)c2c(C)c1C` it is “X (X = >60%)”; for `COC(=O)c1sc2nc(C)c(C)c(C)c2c1N` it is “Y (Y = 30-60%)”. On the same count and under the same terms, the entry for `COc1ccc2nc3sc(C(N)=O)c(N)c3cc2c1` is “X (X = >60%)”; for `NC(=O)c1sc2nc3c(c(-c4cccnc4)c2c1N)CCC3` it is “Z (Z = <30%)”. On to `NC(=O)c1sc2nc(-c3ccccc3)ccc2c1N`, for which the “Tat hybrid cell viability at 50,000 nM” value was “X (X = >60%)”.

Turning to `NC(=O)c1sc2nc3c(cc2c1N)CCC3`, the “Tat hybrid cell viability at 50,000 nM” value is “X (X = >60%)”. Same read-out and setting: the entry for `COCc1cc(C)nc2sc(C(=O)c3ccc(Cl)cc3)c(N)c12` is “X (X = >60%)”; for `CC(=O)C1=C(C)Nc2sc(C(N)=O)c(N)c2C1c1cccnc1` (stereo not drawn) it is “X (X = >60%)”; for `Cc1cc2cc3c(N)c(C(N)=O)sc3nc2cc1C` it is “X (X = >60%)”.

Take `Cc1ccc(-c2cc(-c3ccc(Cl)cc3)c3c(N)c(C(N)=O)sc3n2)cc1`: the “Tat hybrid cell viability at 50,000 nM” value was “Tat hybrid % inhibition at 5,000 nM: Z Tat hybrid cell viability at 50,000 nM: Z U1% inhibition at 10,000 nm: Z (Z = <30%)”. For the compound `CN1CCc2nc3sc(C(N)=O)c(N)c3cc2C1`, the “Tat hybrid cell viability at 50,000 nM” value is recorded as “X (X = >60%)”. On the same count and under the same terms, under `CC(=O)C1=C(C)Nc2sc(C(N)=O)c(N)c2C1c1ccccc1` (stereo not drawn) stands “Y (Y = 30-60%)”; under `COCc1cc(C)nc2sc(C(=O)Nc3ccc(NC(C)=O)cc3)c(N)c12`, “X (X = >60%)”. As to `N#Cc1c(N)nc2sc(C(=O)Nc3ccc(Cl)cc3)c(N)c2c1-c1cccs1`, the “Tat hybrid cell viability at 50,000 nM” value is “X (X = >60%)”. Same read-out and setting: under `Cc1ccc(-c2cc(C(F)F)nc3sc(C(N)=O)c(N)c23)cc1` stands “X (X = >60%)”; under `NC(=O)c1sc2[nH]c(=O)c(C(=O)O)cc2c1N`, “X (X = >60%)”.

For the compound `Cc1cc(NC(=O)c2sc3nc(C)c(C)c(C)c3c2N)no1`, the “Tat hybrid cell viability at 50,000 nM” value is given as “X (X = >60%)”.

Take `Cc1ccc2c(N)c(C(N)=O)sc2n1` [drawing 277]: the “Tat hybrid cell viability at 50,000 nM” value is reported as “X (X = >60%)”. On the same count and under the same terms, under `COCc1cc(C)c2c(N)c(C(N)=O)sc2n1` stands “Y (Y = 30-60%)”. Still for that read-out and setting: under `NC(=O)c1sc2nc(-c3ccccc3)cc(C(F)(F)F)c2c1N` stands “X (X = >60%)”.

On to `Cc1nc2sc(C(=O)c3ccc(Cl)cc3)c(N)c2c(C)c1C`, for which the “Tat hybrid cell viability at 50,000 nM” value is “X (X = >60%)”.

Tested on in the next series: not listed separately
The description is as above. The following applies: human, Tat-hybrid reporter cell lines (HeLa); Table 5; read-out: Tat hybrid TC50. It counts as cell-based. How it is done: as §1, §2
In the case of `CN1CCN(c2cncc3sc(C(N)=O)c(N)c23)CC1`, the CC50 at 48 h is under 40 µM. On the same count and under the same terms, the figure for `NC(=O)c1sc2cncc(N3CCCC(c4nc5ccccc5o4)C3)c2c1N` (stereo not drawn) is under 40 µM; for `CN(C=O)c1ccc(C(=O)N2CCN(c3cncc4sc(C(N)=O)c(N)c34)CC2)cc1` it is under 40 µM. Same read-out and setting: the figure for `NC(=O)c1sc2cncc(Cl)c2c1N` is under 40 µM; for `CC(=O)N1CCN(c2cncc3sc(C(N)=O)cc23)CC1` it is over 40 µM.

Take `COc1cc(C(=O)N2CCN(c3cncc4sc(C(N)=O)c(N)c34)CC2)ccc1C`: the CC50 at 48 h was under 40 µM. In the case of `Cc1noc(C)c1C(=O)N1CCN(c2cncc3sc(C(N)=O)c(N)c23)CC1`, the CC50 at 48 h is under 40 µM. On the same count and under the same terms, under `CN(Cc1cccs1)c1cncc2sc(C(N)=O)c(N)c12` stands under 40 µM; under `CS(=O)(=O)c1ccc(C(=O)N2CCN(c3cncc4sc(C(N)=O)c(N)c34)CC2)cc1`, under 40 µM; under `CC(C)c1n[nH]c2c1CN(c1cncc3sc(C(N)=O)c(N)c13)CC2`, under 40 µM.

As to `Cc1cccc(N2CCN(c3cncc4sc(C(N)=O)c(N)c34)CC2)n1`, the CC50 at 48 h was under 40 µM. In the case of `NC(=O)c1sc2cncc(-c3cncc4ccccc34)c2c1N`, the CC50 at 48 h is over 40 µM. For the compound `NC(=O)c1sc2cncc(-c3cccc4cccnc34)c2c1N`, the CC50 at 48 h is over 40 µM.

In the case of `NC(=O)c1sc2cncc(-c3ccncc3)c2c1N`, the CC50 at 48 h is over 40 µM. Take `COc1ccc(C(=O)N2CCN(c3cncc4sc(C(N)=O)c(N)c34)CC2)cc1F`: the CC50 at 48 h was under 40 µM.
